For orientation: IC50 means the point on the concentration scale where inhibition reaches its midpoint.

The target in the assay is T1, recombinant human KLK5 (Homo sapiens, UniProt Q9Y337).
T1 construct: purchased Novoprotein or R&D Systems C415 or 1108-SE
T1 sequence (Q9Y337 23-293): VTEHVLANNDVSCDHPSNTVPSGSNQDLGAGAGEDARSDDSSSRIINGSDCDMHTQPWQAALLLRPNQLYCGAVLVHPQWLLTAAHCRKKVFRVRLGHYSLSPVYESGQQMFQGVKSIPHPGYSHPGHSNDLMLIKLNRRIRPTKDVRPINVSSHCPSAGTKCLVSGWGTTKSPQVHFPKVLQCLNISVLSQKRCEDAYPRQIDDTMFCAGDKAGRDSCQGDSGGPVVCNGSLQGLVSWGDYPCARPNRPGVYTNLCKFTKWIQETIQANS
Briefly: Kallikrein (KLK) 5 enzymatic assay (Boc-VPR-AMC fluorogenic substrate). It is filed as biochemical. Conditions: recombinant human KLK5 0.1 μg/well, Boc-VPR-AMC 100 μM, pH 7.5, room temperature, 1% DMSO; tested a minimum of three times. An excerpt: Kallikrein-5 (KLK5) is a member of the serine protease family of proteolytic enzymes, confirmed to have trypsin-like activity (Michael I P, et al. Biochemical and enzymatic characterization of human kallikrein 5 (hK5), a novel serine protease potentially involved in cancer progression (J. Biol. Chem. 2005 Apr. 15; 280 (15): 14628-35). Boc-VPR-AMC is a fluorogenic peptide substrate composed of the short peptide chain, Valine-Proline-Arginine (VPR) and the fluorophore, 7-amino-4-methylcoumarin (AMC). KLK5 is able to cleave the fluorogenic peptide substrate Boc-VPR-AMC, releasing the AMC fluorophore, which causes a fluorescent emission in proportion with the enzymatic activity of KLK5. The KLK5 enzymatic activity is monitored by measuring fluorescent emission at wavelengths of 380 nm (excitation) and 460 nm (emission).
The IC50 value of compounds against KLK5 (i.e., the concentration of the compound that inhibits 50% of the enzymatic activity) was calculated according to the procedure reported by R&D systems (Recombinant human KLK5, Catalog Number: 1108-SE), with the exception the pH of the assay was modified from 8.0 to 7.5. Specifically, recombinant human KLK5 (Novoprotein Catalog #C415 or R&D systems Catalog #1108-SE) and fluorogenic peptide Boc-VPR-AMC substrate (R&D Catalog #ES011) were each separately diluted in assay buffer (0.1 M NaH2PO4 buffer, pH 7.5). The compounds of the disclosure were dissolved in DMSO at a concentration of 10 mM. A portion of this stock solution was added to the recombinant human KLK5 solution to provide a desired concentration of the compounds and the mixture was incubated at room temperature. The reaction was initiated by the addition of the fluorogenic peptide substrate at room temperature. The final concentration of recombinant human KLK5 was 0.1 μg/well and the final concentration of the fluorogenic substrate was 100 μM (final volume of 100 μL, 1% DMSO). The assays were performed in 96 well F16 Black Maxisorp Plate (Nunc Catalog #475515). Controls included assay buffer alone and enzyme solutions to which DMSO was added. The reaction rates were measured spectrophotometrically by excitation at 380 nm and emission at 460 nm on a Biotek Synergy H1 plate reader.
The reaction rate for enzyme alone was compared to the reaction rate of enzyme in the presence of compound and the percent inhibition was calculated as shown below:
Percent Inhibition=[Rate with inhibitor/Rate without inhibitor)]×100
An IC50 indicates a compound concentration that inhibits 50% of the enzymatic activity. Compounds were tested a minimum of three times.

Regarding `CC(C)n1nc(COc2ccccc2CC(=O)O)c2cc(-c3cccc(-c4cnc[nH]4)c3)ccc21` [Compound 51c, 2-(2-((5-(3-(1H-imidazol-5-yl)phenyl)-1-isopropyl-1H-indazol-3-yl)methoxy)phenyl)acetic acid], the IC50 was above 10000 nM. For `CC(C)n1nc(COc2ccccc2CC(=O)O)c2cc(-c3cccc(-c4nnc[nH]4)c3)ccc21` [Compound 52c, 2-(2-((5-(3-(4H-1,2,4-triazol-3-yl)phenyl)-1-isopropyl-1H-indazol-3-yl)methoxy)phenyl)acetic acid], the IC50 is above 10000 nM. In the case of `CC(C)n1nc(COc2ccccc2CC(=O)O)c2cc(-c3ccnc4c(N)cccc34)ccc21` [Compound 53c, 2-(2-((5-(8-aminoquinolin-4-yl)-1-isopropyl-1H-indazol-3-yl)methoxy)phenyl)acetic acid], the IC50 is above 10000 nM. For the molecule `CC(C)n1nc(COc2ccccc2CC(=O)O)c2cc(-c3cccc4c(N)nn(C)c34)ccc21` [Compound 54c, 2-(2-((3′-amino-1-isopropyl-1′-methyl-1H, 1′H-[5,7′-biindazol]-3-yl)methoxy)phenyl)acetic acid], the IC50 is above 10000 nM. As for `CC(C)n1nc(COc2ccccc2CC(=O)O)c2cc(-c3ccc4ncc(N)n4n3)ccc21` [Compound 55c, 2-(2-((5-(3-aminoimidazo[1,2-b]pyridazin-6-yl)-1-isopropyl-1H-indazol-3-yl)methoxy)phenyl)acetic acid], the figure is above 10000 nM; as for `CC(C)n1nc(COc2ccccc2CC(=O)O)c2cc(-c3cccc4cnc(N)cc34)ccc21` [Compound 56c, 2-(2-((5-(3-aminoisoquinolin-5-yl)-1-isopropyl-1H-indazol-3-yl)methoxy)phenyl)acetic acid], above 10000 nM; as for `Cn1nc(COc2ccccc2CC(=O)O)c2cc(-c3ccc4ccnc(N)c4c3)ccc21` [Compound 57b, 2-(2-((5-(1-aminoisoquinolin-7-yl)-1-methyl-1H-indazol-3-yl)methoxy)phenyl)acetic acid], below 1000 nM. As for `Cn1nc(COc2ccccc2CC(=O)O)c2cc(-c3cccc4c(N)nccc34)ccc21` [Compound 58b, 2-(2-((5-(1-aminoisoquinolin-5-yl)-1-methyl-1H-indazol-3-yl)methoxy)phenyl)acetic acid], the figure is below 1000 nM; as for `N=C(N)c1cccc(-c2ccc3c(c2)c(COc2ccccc2CC(=O)O)nn3C2CC2)c1` [Compound 59d, 2-(2-((5-(3-carbamimidoylphenyl)-1-cyclopropyl-1H-indazol-3-yl)methoxy)phenyl)acetic acid], below 1000 nM. Regarding `Nc1nccc2ccc(-c3ccc4c(c3)c(COc3ccccc3CC(=O)O)nn4C3CC3)cc12` [Compound 60b, 2-(2-((5-(1-aminoisoquinolin-7-yl)-1-cyclopropyl-1H-indazol-3-yl)methoxy)phenyl)acetic acid], the IC50 is below 1000 nM. On to `COc1ccc(CC(=O)O)c(OCc2nn(C(C)C)c3ccc(-c4ccc5ccnc(N)c5c4)cc23)c1` [Compound 61b, 2-(2-((5-(1-aminoisoquinolin-7-yl)-1-isopropyl-1H-indazol-3-yl)methoxy)-4-methoxyphenyl)acetic acid], for which the IC50 is below 1000 nM.

`Cc1ccc(CC(=O)O)c(OCc2nn(C(C)C)c3ccc(-c4ccc5ccnc(N)c5c4)cc23)c1` [Compound 62c, 2-(2-((5-(1-aminoisoquinolin-7-yl)-1-isopropyl-1H-indazol-3-yl)methoxy)-4-methylphenyl)acetic acid]: the IC50 was below 1000 nM.

Turning to `CC(C)n1nc(C(=O)Nc2ccccc2CC(=O)O)c2cc(-c3ccc4ccnc(N)c4c3)ccc21` [Compound 63d, 2-(2-(5-(1-aminoisoquinolin-7-yl)-1-isopropyl-1H-indazole-3-carboxamido)phenyl)acetic acid], the IC50 was in the range of 1000 to 10000 nM. For `CC(C)n1nc(COc2ccccc2CC(=O)O)c2cc(-c3cccc(C(=N)N)c3F)ccc21` [Compound 64d, 2-(2-((5-(3-carbamimidoyl-2-fluorophenyl)-1-isopropyl-1H-indazol-3-yl)methoxy)phenyl)acetic acid], the IC50 is below 1000 nM.

(Values after patent publication US20240239752A1, “BICYCLIC HETEROAROMATIC INHIBITORS OF KLK5” (BioCryst Pharmaceuticals, Inc., priority 2021, published 2024).)
